Results taken from patent US20060251702A1, “Implantable materials and methods for inhibiting tissue adhesion formation” (Cook Biotech Incorporated, priority 2005, published 2006).
Several values for one entry are separate records, joined by “and”; a condition that tells them apart may be missing. Identical values can stand only once. Like-named read-outs stand apart in the source and are kept apart here.

Test system: post-surgical adhesions on the traumatized cecal surface
Type: in vivo
Details: score of one rat, 21 days
Experimental: The samples were then removed from solution, frozen at −80° C. overnight, relyophilized, and sterilized with ethylene oxide.
Forty-nine 250-300 gram Sprague-Dawley rats were anesthetized with an IM dose of ketamine and xylazine and prepared for aseptic abdominal surgery. […] The adjacent wall of the peritoneal cavity was mildly abraded with the same nylon brush and the cecum was either placed back into the abdominal cavity, covered with biomaterial, which was anchored to the abdominal cavity by suturing it to mesenchymal fat, or injected with a solution and placed back into the abdominal cavity.
Following cecal abrasion, groups of rats received one of the following 8 treatments: • Treatment 1: (Control) No biomaterials were implanted following cecal injury. […] Care was taken to avoid perforating the bowel N=6 rats. • Treatment 3: (PPM) a piece of polypropylene mesh (Bard) was placed over the abraded surface and secured with non-absorbable nylon suture. […] N=6 rats. • Treatment 8: […] DMSO was delivered to the peritoneal cavity prior to closure. N=6 rats.
Following placement of the cecum back into the abdominal cavity, the abdominal wall was closed with 4-0 silk and the skin closed with surgical staples.

[1] = IP high dose: 2.0 mg nimesulide in 1.0 mL DMSO to the peritoneal cavity
[2] = IP low dose: 0.5 mg nimesulide in 1.0 mL DMSO to the peritoneal cavity

**Q.** `CS(=O)(=O)Nc1ccc([N+](=O)[O-])cc1Oc1ccccc1` [nimesulide] was tested. Which “Extent (of adhesions, score)” value [1] did it give?
**A.** 1 (1=adhesions on 25% of the traumatized cecal surface) (3×) and 0

**Q.** And the “Tenacity (of adhesions, score)” value [1]?
**A.** 2 (2×) and 1 and 0

**Q.** What about the “Extent (of adhesions, score)” value [2] of the same molecule?
**A.** 2 (2=adhesions on 50% of the traumatized cecal surface)

**Q.** And the “Tenacity (of adhesions, score)” value [2]?
**A.** 2
